In experiment [1] the test system is IFN induction in cGAMP-stimulated THP1 cells. Kind of experiment: cGAMP stimulated counter cell assay, THP1-Dual cells, Lucia luciferase reporter (THP1(cGAMP) IC50).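 Also: IRF-driven Lucia luciferase luminescence after 18 h at 37° C, compound series topping at 10 µM with 1% DMSO, unstimulated wells as 0% and DMSO wells as 100%.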 The experiment is classed as cell-based. The conditions noted are these: Homo sapiens, THP-1, THP1-Dual cells stimulated with 10 μM cGAMP.
Source text: 6.2 Method: Human cGAS Cell Assay and cGAMP Stimulated Counter Cell Assay (THP1(vir) IC50 and THP1(cGAMP) IC50)
THP1-Dual™ cells (InvivoGen #thpd-nfis) expressing IRF dependent Lucia luciferase reporter were used as basis for both assays.
(§1) For the counter assay, cells were stimulated by cGAMP (SigmaAldrich #SML1232) to activate the identical pathway independent and directly downstream of cGAS (measurement of THP1(cAMP) IC50). Pathway activity was monitored by measuring the Lucia luciferase activity induced by either DNA stimulated cGAS enzyme activity (measurement of THP1^(vir) IC50) or by cGAMP directly (measurement of THP1(cAMP) IC50, counter assay).
Compounds were delivered in 10 mM DMSO solution, serially diluted and transferred to the 384 well assay plate (Greiner #781201) using an Echo acoustic dispenser. Typically, 8 concentrations were used with the highest concentration at 10 μM in the final assay volume followed by ˜1:5 dilution steps. DMSO concentration was set to 1% in the final assay volume. The 384 well assay plate contained 21 test compounds (column 1-22), and DMSO in column 23 and 24.
(§2) 30 μL of the cell/virus-mix were added to each well of the compound plate from column 1-23 via MultiDrop Combi dispenser (5000 cells/well). In column 24, 30 μl/5000 cells/well without virus were added as a low control.
(§3) The plates were then incubated for 18 h at 37° C. in a humidified incubator.
(§4) Following that, 15 μL of QuantiLuc detection reagent (InvivoGen #rep-qlcg5) were added to each well using a MultiDrop Combi. Measurement was done immediately after the addition using an EnVision reader (US-luminescence read-mode).
Data Evaluation and Calculation:
(§5) For data evaluation and calculation, the measurement of the low control was set as 0% control and the measurement of the high control was set as 100% control. The IC50 values were calculated using the standard 4 parameter logistic regression formula. Calculation: [y=(a−d)/(1+(x/c)^b)+d], a=low value, d=high value; x=conc M; c=1C50 M; b=slope
The test system of experiment [2] is IFN induction in dsDNA-stimulated human whole blood. Kind of experiment: Human whole blood assay, dsDNA transfection, IFNα2a production (hWB IC50).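 Also: cGAS pathway activity, IFNα2a in plasma by MSD immunoassay after 22 h at 37 °C, 8 concentrations up to 10 µM in 0.1% DMSO, DMSO controls.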 Type of experiment: cell-based.
Procedure: For the detection of cellular cGAS activity human whole blood was stimulated by transfection with double stranded DNA. Pathway activity was monitored by measuring the IFNα2α production.
Typically, 8 concentrations were used with the highest concentration at 10 μM in the final assay volume followed by ˜1:5 dilution steps. DMSO concentration was set to 0.1% in the final assay volume. The 96-well assay plate contained 10 test compounds, and DMSO in control wells.
Whole blood was kept at room temperature for a maximum of 3 hours after collection until use in the assay.
160 μl of the whole blood samples was transferred to each well of the 96-well assay plates filled with compound/OptiMEM. All assay plates were prepared as duplicates with blood from different donors. Blood plates were kept at room temperature for 60 minutes and continuous shaking with 450 rpm, covered with the lid, but not sealed.
20 μl OptiMEM and 9.6:1 Fugene was added to all low control wells.
After covering assay plates with aera seals and the lid, blood plates were kept at room temperature for 30 minutes and continuous shaking with 450 rpm, followed by an overnight incubation of 22 h at 37° C. in the incubator, without shaking.
U-Plex MSD GOLD 96-well Small Spot Strepavidin SECTOR Plates (Meso Scale Diagnostics #L45SA-5) were coated with 25 μl diluted capture antibody. Coated plates were incubated for 60 min at room temperature under continuous shaking at 700 rpm. MSD IFNα-2a plates were washed three times with 150 μl wash buffer (1×HBSS, 0.05% Tween).
After blocking the plates with 100 μl block solution/well (1×HBSS with 0.2% Tween, 2% BSA) for 60 min at room temperature and continuous shaking at 700 rpm, plates were emptied as dry as possible by dumping just before continuing with the human plasma.
Whole Blood assay plates were centrifuged at 1600 rpm for 10 minutes. 25 μl of supernatant was transferred with a pipetting robot from each whole blood plate to the corresponding IFNα-2a plate.
Plates were sealed with microplate seals and kept at room temperature again under continuous shaking at 700 rpm for two hours.
Next MSD IFNα-2a plates were washed three times with 150 μl wash buffer (1×HBSS, 0.05% Tween), before adding 25 μl MSD SULFO-TAG IFNα-2a Antibody solution (1:100 diluted in Diluent 3 (Meso Scale Diagnostics #R50AP-2) to each well of the plates.
Afterwards plates were sealed with microplate seals and kept at room temperature again under continuous shaking at 700 rpm for two hours. Finally, MSD IFNα-2α plates were washed three times with 150 μl wash buffer (1×HBSS, 0.05% Tween). 150 μl 2× Read buffer was added to each well and plates were immediately measured with the MSD Sector S600 Reader using the vendor barcode.
For data evaluation and calculation, % control calculation of each well was based on the mean of high (DNA stimulated control) and mean of low (unstimulated control) controls by using the following formula: [counts(sample)−counts(low))/(counts(high)−counts(low))]*100
The IC50 values were calculated using the standard 4 parameter logistic regression formula. Calculation: [y=(a−d)/(1+(x/c)^b)+d], a=low value, d=high value; x=conc M; c=1C50 M; b=slope
Experiment [3] relates to IFN induction in virus-stimulated THP1 cells. The experiment can be described thus: Human cGAS cell assay, baculovirus-stimulated THP1-Dual cells, Lucia luciferase reporter (THP1(vir) IC50).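 As to all read-outs here: IRF-dependent luminescence, 8 concentrations up to 10 µM in 1% DMSO, 0% = unstimulated cells, 100% = DMSO plus virus, counter assay stimulated with cGAMP downstream of cGAS.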 Type of experiment: cell-based. Conditions: for pIC50: Homo sapiens, THP-1; for Ratio THP(cGAMP) IC50/THP(vir) IC50: selectivity for cGAS inhibition.
Source text: THP1-Dual™ cells (InvivoGen #thpd-nfis) expressing IRF dependent Lucia luciferase reporter were used as basis for both assays. For the detection of cellular cGAS activity cells were stimulated by a baculovirus (pFastbac-1, Invitrogen, no coding insert) infection that delivers the cGAS enzyme stimulating double-stranded DNA (measurement of THP1(vir) IC50).
as §1
Typically, 8 concentrations were used with the highest concentration at 10 μM in the final assay volume followed by ˜1:5 dilution steps. DMSO concentration was set to 1% in the final assay volume. The 384 well assay plate contained 21 test compounds (column 1-22), and DMSO in column 23 and 24.
The baculovirus solution was then added 1:200 (may have varied according to virus batch) to the cells (measurement of THP1(vir) IC50).
as §2, §3, §4
Data Evaluation and Calculation:
as §5
A further experiment has as its system cGAS. The conditions noted are these: as disclosed on page 45 of WO 2020/142729; read-out: biochemical (in vitro) IC50-value group; cited from earlier work.
The target of another experiment is Human cGAS (Homo sapiens (Human), UniProt Q8N884). Kind of experiment: Human cGAS enzyme assay (hcGAS IC50, in vitro), cGAMP formation by RapidFire MS.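 Also: compounds preincubated 60 min, then GTP and ATP (30 µM each) added for 90 min at room temperature, cGAMP read relative to cyclic-di-GMP internal standard, no-enzyme/DNA wells as 0%.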 The experiment is classed as biochemical. Conditions: 45 bp dsDNA, GTP/ATP.
Sequence of Human cGAS (Q8N884 whole entry): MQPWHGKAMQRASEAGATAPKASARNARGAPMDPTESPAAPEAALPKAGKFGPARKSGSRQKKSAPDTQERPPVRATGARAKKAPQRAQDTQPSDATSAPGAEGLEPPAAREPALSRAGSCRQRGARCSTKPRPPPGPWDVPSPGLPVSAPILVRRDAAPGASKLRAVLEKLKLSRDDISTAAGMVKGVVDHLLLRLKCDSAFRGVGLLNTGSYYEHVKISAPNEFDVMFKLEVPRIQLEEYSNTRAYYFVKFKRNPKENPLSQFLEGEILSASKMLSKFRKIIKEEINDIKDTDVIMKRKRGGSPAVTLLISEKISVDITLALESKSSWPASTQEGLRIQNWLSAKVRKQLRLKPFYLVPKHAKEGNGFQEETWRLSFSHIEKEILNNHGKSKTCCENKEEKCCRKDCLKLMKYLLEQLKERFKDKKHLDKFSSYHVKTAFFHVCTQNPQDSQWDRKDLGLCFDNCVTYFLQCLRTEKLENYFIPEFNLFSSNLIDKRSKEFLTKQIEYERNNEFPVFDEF
Setting [4] is: baculovirus-stimulated THP1-Dual cells, 18 h.

pIC50: −log10 of the molar value. Some results are limits rather than exact numbers.

Results on ten compounds are retold here after patent publication US12043625B2, “Pyridine derivatives with c-linked cyclic substituents as cGAS inhibitors” (BOEHRINGER INGELHEIM INTERNATIONAL GMBH, priority 2021, dated 2024).

`Cc1nc(N2C[C@@H](Cc3nn[nH]n3)C[C@H]2C(=O)O)c2oc3ccccc3c2n1` [Example 25, reference compound]: the pIC50 in experiment [1] was below 4.77; in experiment [2] it was below 5.00; in experiment [3], 4.77; in experiment [3] (setting [4]), below 4.77; in the experiment on cGAS, above 7.00.

In the case of `O=C(O)[C@@H]1C[C@H](Oc2ncc(Cl)cc2C2(F)CCS(=O)(=O)CC2)CN1c1nc(C(F)(F)F)nc2c1oc1ccccc12` [Example 2.02], the pIC50 in experiment [1] is below 4.78; in experiment [2] it was 7.05; at Human cGAS it was 8.40; in experiment [3] (setting [4]) it was 6.27. For the same compound, the “Ratio THP(cGAMP) IC50/THP(vir) IC50” value in experiment [3] is above 31.

As to `CC#Cc1cnc(O[C@H]2C[C@@H](C(=O)O)N(c3nc(C(F)F)nc4c3oc3ccccc34)C2)c([C@@]2(F)CCN(C(C)=O)C[C@@H]2C)c1` [Example 2.18], the pIC50 in experiment [1] was 4.90; in experiment [2] it was 7.01; against Human cGAS it was 7.89; in experiment [3] (setting [4]), 7.23. For the same compound, the “Ratio THP(cGAMP) IC50/THP(vir) IC50” value in experiment [3] turned out to be 215.

Turning to `O=C(O)[C@@H]1C[C@H](Oc2ncc(-n3cc(Cl)cn3)cc2C2(F)CCOCC2)CN1c1nc(C(F)F)nc2c1oc1ccccc12` [Example 5.01, (2S,4S)-4-{[5-(4-chloro-1H-pyrazol-1-yl)-3-(4-fluorooxan-4-yl)pyridin-2-yl]oxy}-1-[4-(difluoromethyl)-8-oxa-3,5-diazatricyclo[7.4.0.0^2,7]trideca-1(13),2,4,6,9,11-hexaen-6-yl]pyrrolidine-2-carboxylic acid], the pIC50 was below 4.78 in experiment [1], 5.54 in experiment [2], 7.92 at Human cGAS and 6.00 in experiment [3] (setting [4]). Further, the “Ratio THP(cGAMP) IC50/THP(vir) IC50” value in experiment [3] is on record as above 17.

Take `C#Cc1cnc(O[C@H]2C[C@@H](C(=O)O)N(c3nc(C(F)(F)F)nc4c3oc3ccccc34)C2)c([C@@]2(F)CCS(=O)(=O)C[C@@H]2C)c1` [Example 2.12]: the pIC50 in experiment [1] is 4.66; in experiment [2], 8.10; at Human cGAS, 8.52; in experiment [3] (setting [4]), 8.10. The “Ratio THP(cGAMP) IC50/THP(vir) IC50” value in experiment [3] is 2619.

As for `C#Cc1cnc(O[C@H]2C[C@@H](C(=O)O)N(c3nc(C(F)F)nc4c3oc3ccccc34)C2)c([C@@]2(F)CCS(=O)(=O)C[C@@H]2C)c1` [Example 2.11], the negative-log IC50 (pIC50) in experiment [1] is below 4.78; in experiment [2] it was 8.52; against Human cGAS, 8.70; in experiment [3] (setting [4]), 8.40. Moreover, the “Ratio THP(cGAMP) IC50/THP(vir) IC50” value in experiment [3] is reported as above 3829.

As to `N#CN1CCC(F)(c2cc(Cl)cnc2O[C@H]2C[C@@H](C(=O)O)N(c3nc(C(F)F)nc4c3oc3ccccc34)C2)CC1` [Example 2.05], the pIC50 in experiment [1] was 4.78; in experiment [2], 6.02; on Human cGAS, 8.22; in experiment [3] (setting [4]), 6.14. In addition, the “Ratio THP(cGAMP) IC50/THP(vir) IC50” value in experiment [3] is given as 23.

On to `C#Cc1cnc(O[C@H]2C[C@@H](C(=O)O)N(c3nc(C(F)(F)F)nc4c3oc3ccccc34)C2)c([C@]2(F)CCS(=O)(=O)C[C@H]2C)c1` [Example 2.15], for which the pIC50 in experiment [1] was 4.99; in experiment [2], 6.54; against Human cGAS, 8.22; in experiment [3] (setting [4]) it was 6.68. Also, the “Ratio THP(cGAMP) IC50/THP(vir) IC50” value in experiment [3] was 50.

With `O=C(O)[C@@H]1C[C@H](Oc2ncc(Cl)cc2[C@@]2(F)CCN3C(=O)OC[C@H]3C2)CN1c1nc(C(F)F)nc2c1oc1ccccc12` [Example 2.13], the pIC50 in experiment [1] was below 4.78; in experiment [2] it was 6.24; at Human cGAS, 8.15; in experiment [3] (setting [4]) it was 6.09. Further, in experiment [3], the “Ratio THP(cGAMP) IC50/THP(vir) IC50” value is on record as above 20.

As to `C#Cc1cnc(O[C@H]2C[C@@H](C(=O)O)N(c3nc(C(F)F)nc4c3oc3ccccc34)C2)c([C@]2(F)CCS(=O)(=O)C[C@H]2C)c1` [Example 2.14], the pIC50 in experiment [1] is 5.11; in experiment [2], 6.91; against Human cGAS, 8.30; in experiment [3] (setting [4]) it was 6.61. For the same compound, in experiment [3], the “Ratio THP(cGAMP) IC50/THP(vir) IC50” value worked out at 31.
